Source: ChEMBL document CHEMBL5696442, “Discovery of type II inhibitors of TGFβ-activated kinase 1 (TAK1) and mitogen-activated protein kinase kinase kinase kinase 2 (MAP4K2)” (J Med Chem, 2015)

Legend:
[1] = target: T1, Dual specificity mitogen-activated protein kinase kinase 6 (Homo sapiens) (UniProt P52564); assay: Inhibition of MAP2K6 Lys2 labeling site in human Huh-7 cell lysate at 1 uM by KiNativ Profiling analysis relative to control; assay type: subcellular
T1 sequence (whole entry): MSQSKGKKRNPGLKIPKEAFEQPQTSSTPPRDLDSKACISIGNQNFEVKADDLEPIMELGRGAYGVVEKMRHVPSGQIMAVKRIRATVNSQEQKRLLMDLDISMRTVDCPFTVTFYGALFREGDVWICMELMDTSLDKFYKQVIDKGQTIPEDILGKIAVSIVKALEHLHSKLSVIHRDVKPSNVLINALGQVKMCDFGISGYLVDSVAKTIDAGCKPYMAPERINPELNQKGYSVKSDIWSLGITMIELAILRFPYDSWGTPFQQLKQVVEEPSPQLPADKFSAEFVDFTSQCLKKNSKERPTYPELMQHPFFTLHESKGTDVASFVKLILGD

[2] = target: T2, Dual specificity mitogen-activated protein kinase kinase 7 (Homo sapiens) (UniProt O14733); assay: Inhibition of MAP2K7 Lys2 labeling site in human Huh-7 cell lysate at 1 uM by KiNativ Profiling analysis relative to control; assay type: subcellular
T2 sequence (whole entry): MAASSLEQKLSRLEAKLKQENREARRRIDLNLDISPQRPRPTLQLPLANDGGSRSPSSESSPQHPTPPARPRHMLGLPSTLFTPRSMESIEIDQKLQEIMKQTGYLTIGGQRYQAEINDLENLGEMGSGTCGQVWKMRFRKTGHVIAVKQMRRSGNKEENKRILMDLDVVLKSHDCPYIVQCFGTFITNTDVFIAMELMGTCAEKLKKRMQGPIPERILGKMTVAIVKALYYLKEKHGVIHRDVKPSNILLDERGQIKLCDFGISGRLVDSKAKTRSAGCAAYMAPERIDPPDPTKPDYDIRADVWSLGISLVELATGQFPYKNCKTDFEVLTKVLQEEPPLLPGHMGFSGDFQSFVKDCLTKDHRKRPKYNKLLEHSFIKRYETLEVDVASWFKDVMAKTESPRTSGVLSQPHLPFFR

[3] = target: Phosphatidylinositol 3-kinase catalytic subunit type 3 (Homo sapiens) (UniProt Q8NEB9); assay: Inhibition of PIK3C3 ATP labeling site in human Huh-7 cell lysate at 1 uM by KiNativ Profiling analysis relative to control; assay type: subcellular
Chain of Phosphatidylinositol 3-kinase catalytic subunit type 3 (Homo sapiens) (Q8NEB9 whole entry): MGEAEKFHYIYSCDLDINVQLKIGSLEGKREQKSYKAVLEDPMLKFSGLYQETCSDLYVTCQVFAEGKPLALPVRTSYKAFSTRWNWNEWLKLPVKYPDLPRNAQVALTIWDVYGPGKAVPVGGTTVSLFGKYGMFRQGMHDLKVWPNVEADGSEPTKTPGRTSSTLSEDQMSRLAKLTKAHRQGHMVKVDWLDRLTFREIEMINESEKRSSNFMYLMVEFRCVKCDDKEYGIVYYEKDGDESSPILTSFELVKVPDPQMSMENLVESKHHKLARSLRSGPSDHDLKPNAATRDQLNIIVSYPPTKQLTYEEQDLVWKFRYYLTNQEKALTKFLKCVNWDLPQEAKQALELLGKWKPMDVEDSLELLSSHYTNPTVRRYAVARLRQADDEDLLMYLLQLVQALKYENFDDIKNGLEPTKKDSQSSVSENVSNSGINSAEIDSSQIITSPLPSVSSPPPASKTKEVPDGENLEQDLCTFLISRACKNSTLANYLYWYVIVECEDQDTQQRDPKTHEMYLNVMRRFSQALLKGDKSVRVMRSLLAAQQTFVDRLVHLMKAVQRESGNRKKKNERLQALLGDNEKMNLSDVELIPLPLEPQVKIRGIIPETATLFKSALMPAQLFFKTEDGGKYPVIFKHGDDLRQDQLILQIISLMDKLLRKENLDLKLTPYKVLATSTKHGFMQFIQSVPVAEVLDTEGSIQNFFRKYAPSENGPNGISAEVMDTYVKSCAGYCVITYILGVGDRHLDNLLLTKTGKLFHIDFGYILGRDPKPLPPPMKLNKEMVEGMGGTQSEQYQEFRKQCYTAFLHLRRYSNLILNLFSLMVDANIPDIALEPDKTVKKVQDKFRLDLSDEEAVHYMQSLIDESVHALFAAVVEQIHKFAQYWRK

[4] = target: Serine/threonine-protein kinase SIK1 (Homo sapiens) (UniProt P57059); assay: Inhibition of SIK (unknown origin) at 1 uM by Ambit Kinomescan binding assay relative to control
[5] = target: Calcium/calmodulin-dependent protein kinase type II subunit gamma (Homo sapiens) (UniProt Q13555); assay: Inhibition of CaMK2g Lys1 labeling site harbouring KTSTQEYAAKIINTKK in human A-375 cells at 5 uM by KiNativ Profiling analysis relative to control; assay type: cell-based
Chain of Calcium/calmodulin-dependent protein kinase type II subunit gamma (Homo sapiens) (Q13555 whole entry): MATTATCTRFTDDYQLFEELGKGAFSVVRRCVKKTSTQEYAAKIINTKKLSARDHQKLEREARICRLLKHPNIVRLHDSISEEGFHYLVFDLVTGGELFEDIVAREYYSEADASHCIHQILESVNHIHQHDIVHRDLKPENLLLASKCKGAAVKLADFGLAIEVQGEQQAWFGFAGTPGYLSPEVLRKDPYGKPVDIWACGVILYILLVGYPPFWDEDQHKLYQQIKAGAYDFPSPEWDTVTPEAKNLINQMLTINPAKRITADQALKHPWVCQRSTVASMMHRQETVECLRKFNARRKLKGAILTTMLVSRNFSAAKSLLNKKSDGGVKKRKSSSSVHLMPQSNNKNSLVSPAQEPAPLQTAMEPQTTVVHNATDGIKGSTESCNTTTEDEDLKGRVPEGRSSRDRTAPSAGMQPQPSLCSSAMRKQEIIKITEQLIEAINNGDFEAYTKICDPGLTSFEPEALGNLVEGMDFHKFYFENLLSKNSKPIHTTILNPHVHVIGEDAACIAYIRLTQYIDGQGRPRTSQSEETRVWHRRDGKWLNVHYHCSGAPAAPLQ

[6] = target: Serine/threonine-protein kinase 38 (Homo sapiens) (UniProt Q15208); assay: Inhibition of NDR1 ACT labeling site in human A-375 cells at 5 uM by KiNativ Profiling analysis relative to control; assay type: cell-based
Chain of Serine/threonine-protein kinase 38 (Homo sapiens) (Q15208 2-465 limits assumed): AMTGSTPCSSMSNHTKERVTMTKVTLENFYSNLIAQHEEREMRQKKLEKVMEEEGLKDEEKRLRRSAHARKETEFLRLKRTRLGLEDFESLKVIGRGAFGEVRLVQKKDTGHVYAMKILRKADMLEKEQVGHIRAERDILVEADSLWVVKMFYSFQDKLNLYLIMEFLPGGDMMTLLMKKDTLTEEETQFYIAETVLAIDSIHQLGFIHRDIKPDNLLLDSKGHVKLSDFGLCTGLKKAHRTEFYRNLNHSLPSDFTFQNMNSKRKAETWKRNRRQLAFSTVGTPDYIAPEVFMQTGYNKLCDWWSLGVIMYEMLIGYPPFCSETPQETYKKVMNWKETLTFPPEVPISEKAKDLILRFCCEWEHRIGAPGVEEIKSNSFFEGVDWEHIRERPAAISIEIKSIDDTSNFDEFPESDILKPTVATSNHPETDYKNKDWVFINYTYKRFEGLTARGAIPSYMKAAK

[7] = target: Serine/threonine-protein kinase tousled-like 2 (Homo sapiens) (UniProt Q86UE8); assay: Inhibition of TLK2 Lys1 labeling site in human A-375 cells at 0.5 uM by KiNativ Profiling analysis relative to control; assay type: cell-based
Chain of Serine/threonine-protein kinase tousled-like 2 (Homo sapiens) (Q86UE8 whole entry, looked up, canonical isoform): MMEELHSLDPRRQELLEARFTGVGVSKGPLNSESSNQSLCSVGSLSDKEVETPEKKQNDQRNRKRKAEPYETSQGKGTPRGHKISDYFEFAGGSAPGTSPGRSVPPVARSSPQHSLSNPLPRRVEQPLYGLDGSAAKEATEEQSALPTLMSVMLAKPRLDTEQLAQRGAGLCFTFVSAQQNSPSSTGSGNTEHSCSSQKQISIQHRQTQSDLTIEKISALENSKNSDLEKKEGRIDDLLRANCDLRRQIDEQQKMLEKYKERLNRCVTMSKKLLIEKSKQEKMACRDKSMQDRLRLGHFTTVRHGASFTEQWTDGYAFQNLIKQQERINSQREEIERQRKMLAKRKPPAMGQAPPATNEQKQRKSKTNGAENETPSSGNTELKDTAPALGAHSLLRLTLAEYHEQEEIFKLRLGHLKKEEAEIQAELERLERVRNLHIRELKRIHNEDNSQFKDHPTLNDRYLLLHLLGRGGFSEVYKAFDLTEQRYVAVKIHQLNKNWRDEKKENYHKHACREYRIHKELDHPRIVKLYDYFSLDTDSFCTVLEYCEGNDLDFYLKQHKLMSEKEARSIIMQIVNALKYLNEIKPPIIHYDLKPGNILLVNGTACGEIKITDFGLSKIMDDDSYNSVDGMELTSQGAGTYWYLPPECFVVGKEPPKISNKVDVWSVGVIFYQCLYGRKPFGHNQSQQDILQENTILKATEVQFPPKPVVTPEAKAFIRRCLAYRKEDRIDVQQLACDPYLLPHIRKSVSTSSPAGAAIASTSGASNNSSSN

[8] = target: T3, Phosphorylase b kinase gamma catalytic chain, liver/testis isoform (Homo sapiens) (UniProt P15735); assay: Inhibition of PHKG2 (unknown origin) at 1 uM by Ambit Kinomescan binding assay relative to control; values are per cent of control
T3 sequence (whole entry): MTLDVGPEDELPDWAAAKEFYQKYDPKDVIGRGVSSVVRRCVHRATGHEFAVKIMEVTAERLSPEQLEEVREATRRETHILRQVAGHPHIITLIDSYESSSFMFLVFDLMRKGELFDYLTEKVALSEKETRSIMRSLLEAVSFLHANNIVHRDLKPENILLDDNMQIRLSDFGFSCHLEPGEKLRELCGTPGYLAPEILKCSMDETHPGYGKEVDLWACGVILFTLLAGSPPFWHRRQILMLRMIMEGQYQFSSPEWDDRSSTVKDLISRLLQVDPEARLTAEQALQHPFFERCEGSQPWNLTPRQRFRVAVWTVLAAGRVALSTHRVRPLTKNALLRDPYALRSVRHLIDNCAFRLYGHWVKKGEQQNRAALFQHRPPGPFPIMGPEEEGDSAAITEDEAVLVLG

[9] = target: Phosphatidylinositol 4-phosphate 5-kinase type-1 alpha (Homo sapiens) (UniProt Q99755); assay: Inhibition of PIP5K1A (unknown origin) at 1 uM by Ambit Kinomescan binding assay relative to control; values are per cent of control
Chain of Phosphatidylinositol 4-phosphate 5-kinase type-1 alpha (Homo sapiens) (Q99755 whole entry): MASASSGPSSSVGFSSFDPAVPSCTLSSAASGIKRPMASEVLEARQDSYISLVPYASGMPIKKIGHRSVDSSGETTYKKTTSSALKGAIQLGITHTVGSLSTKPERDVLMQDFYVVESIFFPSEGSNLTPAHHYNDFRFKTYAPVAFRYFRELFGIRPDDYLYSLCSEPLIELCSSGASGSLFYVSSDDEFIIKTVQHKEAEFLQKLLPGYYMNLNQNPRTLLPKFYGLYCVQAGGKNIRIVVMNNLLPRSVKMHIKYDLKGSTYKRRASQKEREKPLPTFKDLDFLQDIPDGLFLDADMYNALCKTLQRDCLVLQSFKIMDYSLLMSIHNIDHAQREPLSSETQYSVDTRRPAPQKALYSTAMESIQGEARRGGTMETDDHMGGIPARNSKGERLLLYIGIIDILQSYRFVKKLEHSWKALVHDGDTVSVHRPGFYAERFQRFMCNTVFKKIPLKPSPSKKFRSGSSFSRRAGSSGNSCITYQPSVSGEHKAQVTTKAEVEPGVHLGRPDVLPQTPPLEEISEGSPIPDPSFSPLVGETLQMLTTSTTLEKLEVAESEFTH

[10] = target: Cyclin-dependent kinase 17 (Homo sapiens) (UniProt Q00537); assay: Inhibition of PCTK2 (unknown origin) at 10 uM by Ambit Kinomescan binding assay relative to control
Chain of Cyclin-dependent kinase 17 (Homo sapiens) (Q00537 whole entry, looked up): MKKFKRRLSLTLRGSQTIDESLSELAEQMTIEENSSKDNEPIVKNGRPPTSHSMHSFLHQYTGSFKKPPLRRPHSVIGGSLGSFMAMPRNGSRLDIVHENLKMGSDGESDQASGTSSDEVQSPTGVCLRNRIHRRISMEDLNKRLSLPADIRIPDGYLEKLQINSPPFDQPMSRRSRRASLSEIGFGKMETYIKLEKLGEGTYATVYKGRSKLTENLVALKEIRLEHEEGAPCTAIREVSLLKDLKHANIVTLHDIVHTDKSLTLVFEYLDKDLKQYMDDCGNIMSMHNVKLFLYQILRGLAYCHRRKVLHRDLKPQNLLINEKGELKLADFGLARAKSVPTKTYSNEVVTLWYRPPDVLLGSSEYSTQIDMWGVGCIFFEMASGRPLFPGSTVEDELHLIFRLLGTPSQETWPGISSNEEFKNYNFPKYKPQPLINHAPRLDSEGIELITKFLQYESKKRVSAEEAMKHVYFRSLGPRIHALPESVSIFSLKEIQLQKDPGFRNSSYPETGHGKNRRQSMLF

[11] = target: Tyrosine-protein kinase CSK (Homo sapiens, UniProt P41240); assay: Inhibition of CSK ACT labeling site harbouring VSDFGLTKEASSTQDTGK in human A-375 cells at 0.05 uM by KiNativ Profiling analysis relative to control; assay type: cell-based
Chain of Tyrosine-protein kinase CSK (P41240 2-450 limits assumed): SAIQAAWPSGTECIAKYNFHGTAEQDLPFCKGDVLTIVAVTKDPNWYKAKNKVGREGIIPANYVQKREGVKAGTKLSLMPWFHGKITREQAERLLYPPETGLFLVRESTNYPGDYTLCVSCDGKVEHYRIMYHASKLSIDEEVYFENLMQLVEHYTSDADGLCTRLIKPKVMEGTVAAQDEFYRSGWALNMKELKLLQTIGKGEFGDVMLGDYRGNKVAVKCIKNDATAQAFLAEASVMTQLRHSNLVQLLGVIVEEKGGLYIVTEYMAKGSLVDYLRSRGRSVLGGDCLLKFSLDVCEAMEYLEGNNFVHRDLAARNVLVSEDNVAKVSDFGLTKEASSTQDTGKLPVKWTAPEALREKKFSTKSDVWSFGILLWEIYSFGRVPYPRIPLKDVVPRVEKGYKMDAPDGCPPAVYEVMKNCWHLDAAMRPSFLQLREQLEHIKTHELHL

[12] = target: Interferon-induced, double-stranded RNA-activated protein kinase (Homo sapiens) (UniProt P19525); assay: Inhibition of PKR K2 labeling site in human Huh-7 cells at 10 uM by KiNativ Profiling analysis relative to control; assay type: cell-based
Chain of Interferon-induced, double-stranded RNA-activated protein kinase (Homo sapiens) (P19525 whole entry): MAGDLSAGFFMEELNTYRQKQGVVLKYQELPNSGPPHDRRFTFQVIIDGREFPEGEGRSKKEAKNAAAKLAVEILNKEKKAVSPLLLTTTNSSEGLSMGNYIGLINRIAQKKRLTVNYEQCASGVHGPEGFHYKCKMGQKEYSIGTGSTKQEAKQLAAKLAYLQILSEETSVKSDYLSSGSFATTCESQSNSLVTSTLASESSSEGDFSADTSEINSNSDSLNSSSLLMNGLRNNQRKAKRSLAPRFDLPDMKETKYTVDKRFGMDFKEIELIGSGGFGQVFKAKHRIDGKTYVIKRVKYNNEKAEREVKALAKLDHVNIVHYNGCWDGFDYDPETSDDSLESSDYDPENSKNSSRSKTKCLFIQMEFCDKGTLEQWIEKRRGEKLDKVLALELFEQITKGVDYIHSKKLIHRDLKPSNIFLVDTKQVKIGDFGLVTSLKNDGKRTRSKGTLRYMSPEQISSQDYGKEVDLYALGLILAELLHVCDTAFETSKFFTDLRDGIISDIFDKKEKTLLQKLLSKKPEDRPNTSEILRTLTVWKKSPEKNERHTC

[13] = target: T4, Serine/threonine-protein kinase ULK3 (Homo sapiens) (UniProt Q6PHR2); assay: Inhibition of ULK3 K1 labeling site in human Huh-7 cells at 10 uM by KiNativ Profiling analysis relative to control; assay type: cell-based
T4 sequence (whole entry): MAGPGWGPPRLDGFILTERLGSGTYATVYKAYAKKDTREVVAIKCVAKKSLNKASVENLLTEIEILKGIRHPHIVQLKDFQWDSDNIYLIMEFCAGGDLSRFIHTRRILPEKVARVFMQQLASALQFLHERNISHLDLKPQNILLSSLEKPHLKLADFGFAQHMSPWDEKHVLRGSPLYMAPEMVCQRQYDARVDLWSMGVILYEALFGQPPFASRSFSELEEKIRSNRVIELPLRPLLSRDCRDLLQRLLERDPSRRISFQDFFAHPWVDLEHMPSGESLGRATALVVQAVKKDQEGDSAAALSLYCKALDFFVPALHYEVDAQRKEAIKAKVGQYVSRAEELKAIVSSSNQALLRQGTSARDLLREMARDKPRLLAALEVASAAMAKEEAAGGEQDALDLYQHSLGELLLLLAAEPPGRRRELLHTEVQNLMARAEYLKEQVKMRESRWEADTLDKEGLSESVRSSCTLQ

## CNc1cc(Oc2cc(C(=O)Nc3cc(N4CCN(C)CC4)cc(C(F)(F)F)c3)ccc2C)ncn1
[1]
  inhibition: -4%
[2]
  inhibition: 2.7%
[3]
  inhibition: -4.2%

## CCN1CCN(Cc2ccc(NC(=O)c3ccc(C)c(/C=C/c4cnc5[nH]ccc5c4OC)c3)cc2C(F)(F)F)CC1
[4]
  inhibition: 2.1%
[5]
  inhibition: 11.4%
[6]
  inhibition: -2.6%
[7]
  inhibition: 30.2%
[8]
  residual activity: 100%
[9]
  residual activity: 21%

## CCN1CCN(Cc2ccc(NC(=O)c3ccc(C)c(Oc4ccnc5[nH]ccc45)c3)cc2C(F)(F)F)CC1
[10]
  inhibition: 0.1%
[11]
  inhibition: 23.1%
[12]
  inhibition: 7.9%
[13]
  inhibition: 48%
